Measured values from US8455666B1, “Vegetable oil esterified lipoic acid” (The United States of America, as represented by the …, priority 2011, dated 2013).

How the values were obtained:
[1] = Vesicle leakage (calcein-cobalt) assay; conditions: 37° C.
Method: Lipid Preparation and Formation of Unilamellar Phospholipid Vesicles. Lipid mixtures and vesicles were prepared as described previously (Laszlo et al. 2010. ibid). Lipids were prepared from appropriate amounts of DOPC in chloroform and LDOG-SS- or LDOG-SH (at 1- or 5-mol % of total lipids) in ethanol added to clean amber vials and then gently mixed. Solvents were removed under a stream of argon and then vacuum. The dried lipids were rehydrated in the appropriate buffer and mixed periodically to form multilamellar phospholipid vesicles. The vesicles were subjected to freeze-thaw cycles and then extrusion to form unilamellar vesicles (approx. 125 nm in diameter). Vesicles were covered with argon, protected from light and stored at 4° C. until used. DOPC vesicles incorporating 1- or 5-mol % ALA or DHLA were similarly produced.
Vesicle Leakage (Calcein-Cobalt). Vesicles with and without LDOG were evaluated for membrane integrity using a leakage assay described previously (Evans. Room-temperature ionic liquid cations act as short-chain surfactants and disintegrate a phospholipid bilayer. Colloid. Surface. A 2006, 274:11-17; and Laszlo et al. 2010. ibid). Briefly, the leakage assay was designed such that the low fluorescent signal of the entrapped calcein-cobalt complex increased as vesicles leaked their contents and cobalt was stripped from calcein by external EDTA. Vesicle leakage was monitored with a fluorometer. Samples were continuously stirred in 1-cm path length quartz cuvettes 37° C., with measurements taken for 30 min at 5-s intervals. Experiments were conducted in triplicate. Leakage percentage (L) was determined from the intensity of the fluorescent signal, 100×(Ft−Fo)/(Fmax−Fo), where Ft was the fluorescent signal over time, Fo was the extrapolated initial signal at time zero, and Fmax was the fluorescent signal at the end of the experiment after rupture by addition of Triton X-100 solution. The apparent rate constant k (ms^−1) and maximum extent of vesicle leakage (L∞), prior to vesicle rupture, were obtained by fitting to the equation: Lt=L∞(1−exp(−kt)).

[2] = Lipid peroxidation inhibition capacity assay (AAPH initiator, C11-Bodipy reporter); format: biochemical; conditions: for antioxidant capacity compared with Trolox at the same concentration / oxidation protection of DOPC vesicles (C11-Bodipy fluorescence): in words; for oxidation protection of DOPC vesicles (C11-Bodipy fluorescence): AAPH
Method: Lipid Oxidation Inhibition. Lipid oxidation inhibition by LDOG was measured by the lipid peroxidation inhibition capacity assay, which employs AAPH as a free-radical initiator and the lipidic reporter molecule C11-Bodipy (Zhang et al., Lipid peroxidation inhibition capacity assay for antioxidants based on liposomal membranes. Mol. Nutr. Food Res. 2006, 50:714-724). C11-Bodipy fluoresces at 595 nm until it is oxidized, at which point its fluorescence shifts to ˜520 nm (Drummen et al., C11-bodipy581/591, an oxidation-sensitive fluorescent lipid peroxidation probe: (micro)spectroscopic characterization and validation of methodology. Free Radical Biol. Med. 2002, 33:473-490). Conditions for the assay using modified glycerides have been detailed previously (Laszlo et al. 2010. ibid). DOPC and C11-Bodipy were combined in a vial, dried to a film, and then rehydrated in 20 mM Tris-HCl, pH 7.4. When included, ALA, DHLA, LDOG-SS-, or LDOG-SH (at 1- or 5-mol % of total lipids) in ethanol were added prior to formation of vesicles. Unilamellar vesicles were prepared from rehydrated lipids as described above. Samples were diluted to a final concentration of 2.5 mM DOPC (2.4 μM C11-Bodipy) and allowed to equilibrate to 37° C. for 15 min prior to the introduction of AAPH. From the time of AAPH addition (40 mM final concentration), fluorescence intensity (excitation at 540 nm, emission at 595 nm) was measured every minute for 180 min. Experiments were conducted in triplicate at least. The relative fluorescence intensity was calculated by dividing the reading at each minute by the initial fluorescence at the beginning of the experiment (Ft/Fo). Background subtraction was accomplished using the appropriate vesicles without C11-Bodipy.
The water-soluble antioxidant Trolox was used for comparison. Trolox was combined with DOPC and C11-Bodipy, dried, and then rehydrated as described above. A final Trolox concentration range of 10 to 125 μM was employed. The peroxyl radical scavenging capacity of the test antioxidant relative to Trolox (i.e., the relative antioxidation activity) was calculated using the following equation
[formula] where AUCSample is the area under the fluorescence curve (AUC) for vesicles containing antioxidant, AUCTrolox is the area under the curve for vesicles containing 50 μM Trolox (thereby arbitrarily assigned a relative antioxidation activity value of 1.0), AUC0 is the area under the curve for vesicles containing only C11-Bodipy, and molSample is the molar concentration of the antioxidant (Naguib, A fluorometric method for measurement of peroxyl radical scavenging activities of lipophilic antioxidants. Anal. Biochem. 1998, 265:290-298). The AUC was calculated from the average of three different methods, those described by Cao and coworkers (Cao et al., Oxygen-radical absorbance capacity assay for antioxidants. Free Radical Biol. Med. 1993, 14:303-311), Naguib (Naguib, Antioxidant activities of astaxanthin and related carotenoids. J. Agric. Food. Chem. 2000, 48:1150-1154), and Zhang and coworkers (Zhang et al. 2006. ibid).

[3] = earlier study (Laszlo et al. 2010); cited from earlier work
[4] = antioxidant amount 1 mol % in DOPC vesicles
[5] = antioxidant amount 5 mol % in DOPC vesicles
[6] = concentration 25 μM, relative to 50 μM Trolox, DOPC vesicles, 37° C.
[7] = concentration 125 μM, relative to 50 μM Trolox, DOPC vesicles, 37° C.

Compound | leakage rate constant [1, 4] | leakage rate constant [1, 5] | relative antioxidant capacity [2, 6] | relative antioxidant capacity [2, 7] | antioxidant capacity compared with Trolox at the same concentration [2] | relative antioxidant capacity ([2]; concentration 10 μM, relative to 50 μM Trolox, DOPC vesicles, 37° C.) | relative antioxidant capacity ([2]; concentration 50 μM, reference arbitrarily assigned 1.0) | oxidation protection of DOPC vesicles (C11-Bodipy fluorescence) ([2]; 37° C.) | antioxidant capacity compared with Trolox [3]
O=C(O)CCCCC1CCSS1 (stereo not drawn) [ALA, α-Lipoic acid] | 5.19 ± 1.32 * ms^−1 · 10^3 | 3.98 ± 1.69 ms^−1 · 10^3 | 0.61 ± 0.26 | 0.29 ± 0.05 |  |  |  |  | 
O=C(O)CCCC[C@@H](S)CCS (racemic) [DHLA, dihydrolipoic acid] | 1.43 ± 1.25 ms^−1 · 10^3 | 0.48 ± 0.05 * ms^−1 · 10^3 | 1.95 ± 0.03 | 1.12 ± 0.02 | double |  |  |  | 
Cc1c(C)c2c(c(C)c1O)CCC(C)(C(=O)O)O2 (stereo not shown) [Trolox] |  |  | 0.80 ± 0.09 | 0.80 ± 0.08 |  | 0.98 ± 0.28 | 1.00 |  | 
dihydrolipoyl dioleoylglycerol [LDOG—SH] | 4.90 ± 0.90 * ms^−1 · 10^3 | 1.88 ± 0.01 ms^−1 · 10^3 | 2.46 ± 0.10 | 1.21 ± 0.04 | double |  |  | markedly extended the probe's fluorescent period | 
lipoyl dioleoylglycerol [LDOG—SS—] | 0.43 ± 0.12 * ms^−1 · 10^3 | 0.31 ± 0.06 * ms^−1 · 10^3 | 0.09 ± 0.01 | 0.02 ± 0.002 |  |  |  | afforded little oxidation protection | 
feruloyl dioleoylglycerol |  |  |  |  |  |  |  |  | slightly less
